The nature of this data set: Acute toxicity in animals. Conditions: in vivo.

The source of these data is US12187770B2, “Cyclic peptide from novel bone morphogenetic protein 2, preparation method therefor and application thereof” (Hangzhou Huibo Science and Technology Co., Ltd, priority 2019, dated 2025).

Each structure is given as a SMILES string. Bridge positions count the residues as written; N and C are the ends. Peptide text beside a SMILES is read from it.

With `CC[C@H](C)[C@@H]1NC(=O)[C@H](C)NC(=O)[C@H](CO)NC(=O)[C@H](CC(C)C)NC(=O)[C@H](CCC(=O)O)NC(=O)[C@H]([C@@H](C)O)NC(=O)[C@@H]2CCCN2C(=O)[C@H](C(C)C)NC(=O)[C@H](CO)NC(=O)[C@H](CO)NC(=O)[C@H](C)NC(=O)[C@H](CCCCN)NC(=O)[C@@H]2CCCN2C(=O)[C@H]([C@@H](C)CC)NC(=O)[C@H](CCCCN)NC(=O)[C@@H](N)CSSC[C@@H](C(=O)O)NC(=O)[C@H](C)NC(=O)[C@H](C(C)C)NC(=O)[C@H]([C@@H](C)CC)NC(=O)[C@H](Cc2c[nH]c3ccccc23)NC(=O)[C@H](CC(=O)O)NC(=O)CNC(=O)CNC(=O)[C@@H]2CCCN2C(=O)CNC(=O)[C@H](CC(C)C)NC(=O)[C@H](Cc2ccc(O)cc2)NC(=O)[C@H](CC(C)C)NC(=O)[C@H](CCSC)NC(=O)[C@H](CO)NC1=O` [M-C-BMP2] (H-CKIPKASSVPTELSAISMLYLGPGGDWIVAC-OH; disulfide 1-31), the “acute toxicity in animals” value is recorded as “has not been found to have acute toxicity in animals”.
